Here are results for 3 molecules from patent US20020137767A1, “Methods for treating addictive disorders” (priority 1999, published 2002).

Several values for one entry are separate records, joined by “and”; a condition that tells them apart may be missing. Equal values may be shown once. Some results are limits rather than exact numbers.

Series [1] relates to discriminative stimulus effects of cocaine. The series can be described thus: Cocaine drug discrimination, pretreatment protocol (Example 2). Format: in vivo, rhesus monkeys (Macaca mulatta). As to the method:
During the week, all food was delivered after the experimental session, whereas at weekends, food was delivered between 9 a.m. and noon. Water was freely available at all times.
A computer, located in a separate room, controlled the operant panels and data collection.
Discrimination Training: Discrimination training was conducted 5 days per week during daily sessions composed of multiple cycles. Each cycle consisted of a 15 min time-out period followed by a 5 min response period. During the time-out, all stimulus lights were off, and responding had no scheduled consequences. During the response period, the right and left response keys were transilluminated red or green, and monkeys could earn up to 10 food pellets by responding under a FR 30 schedule of food presentation. For one monkey, the left key was illuminated green and the right key was illuminated red; the colors of the response-keys were reversed for the other three monkeys. The center key was not illuminated at any time and responding on it had no scheduled consequences.
On training days, monkeys were given either saline or 0.40 mg/kg cocaine, i.m., 10 min before the response period. Following the administration of saline, responding on only the green key (the saline-appropriate key) produced food, whereas following administration of 0.40 mg/kg cocaine, only responding on the red key (the drug-appropriate key) produced food. Responses on the inappropriate key reset the FR requirement on the appropriate key. Sessions consisted of 1 to 5 cycles and, if cocaine was administered, this occurred only during the last cycle. Thus, training days consisted of 0 to 5 saline cycles followed by 0 or 1 cocaine cycle.
During each response period, 3 dependent variables were determined:
1) Percent injection-appropriate responding prior to delivery of the first reinforcer.
2) Percent injection-appropriate responding for the entire response period.
Monkeys meeting the following criteria during the training day immediately proceeding the test day and in at least 6 of 7 consecutive training sessions before this, were used for discrimination testing:
1) the percent injection-appropriate responding prior to delivery of the first reinforcer was ≧80% for all cycles;
2) the percent injection-appropriate responding for the entire cycle was ≧90% for all cycles;
3) Response rates during saline training cycles were >0.5 responses per second.
Discrimination Testing: Test sessions were identical to training sessions except that responding on either key produced food, and the test compound was administered using a Pretreatment Protocol. In this protocol, a cumulative dose-effect curve for cocaine (0.013-1.3 mg/kg) was determined either alone or following pretreatment with the test compound, which was administered 20 min before the first dose of cocaine.
Mean data from saline and drug cycles during the training day immediately proceeding the initial test day served as the control data for the subsequent test day.

The subject of series [2] is cocaine self-administration. The series is described as follows: Cocaine self-administration, FR 30, drug component (Example 3).
Series [3] concerns food-maintained behavior. The series is described as follows: Food-maintained responding, FR 30, food components (Example 3).
In series [4] the test system is D1-receptors. As to conditions: po pretreatment; D2-mediated atypical jerking; male SD rats; cited from earlier work.
Series [5] has as its system 5-HT2 receptors. As to conditions: po; male CD rats; cited from earlier work.
Series [6] has as its system D2-like receptors. The conditions noted are these: po; male CD rats; cited from earlier work.
Series [7] concerns stereotypy induced by d-amphetamine sulphate. The conditions noted are these: ip; d-amphetamine sulphate 10 mg/kg sc; male CD rats; cited from earlier work.
Series [8] relates to catalepsy. The conditions noted are these: ip; male CD rats; cited from earlier work.
The subject of series [9] is locomotion induced by d-amphetamine sulphate. The conditions noted are these: male CD rats, cited from earlier work.
Series [10] has as its system D1-like receptors. As to conditions: po; male CD rats; cited from earlier work.
[11] abbreviates: i.m. 20 min before session, cocaine 0.003 mg/kg/inj, individual monkeys, hydrobromide.

In the case of `COC(=O)[C@H]1[C@@H](OC(=O)c2ccccc2)C[C@@H]2CC[C@H]1N2C.Cl` [Cocaine, Cocaine hydrochloride, reference compound], the “substitution for training stimulus (cocaine-appropriate responding)” value in series [1] (cocaine alone 0.4 mg/kg (training dose), all monkeys) is given as “Complete substitution”. Further, in series [1] (cocaine alone 1.3 mg/kg), the “effect on response rates” value is “decreased response rates”. In addition, the “ED50 for cocaine (50% cocaine-appropriate responding), Cocaine Alone” value in series [1] (cumulative cocaine 0.013-1.3 mg/kg i.m., no pretreatment, individual monkeys 1-4) worked out at 0.23 mg/kg.

By ED50 is commonly meant the dose that gives a 50% effect, or the effect in half of the subjects. Consider `Br.COc1cc2c(cc1O)C(C1(c3ccccc3Cl)CC1)N(C)CC2` (single isomer, unassigned; (+)) [test compound, (+)-1-[1-(2-chlorophenyl)cyclopropyl]-7-hydroxy-6-methoxy-2-methyl-1,2,3,4tetrahydroisoquinoline hydrobromide], for which the “ED50 for decreasing response rates maintained by cocaine (Drug component)” value in [2] (setting [11]) is 0.002 mg/kg and 0.001 mg/kg and 0.004 mg/kg. Moreover, the “rightward shift of the peak of the dose-effect function for cocaine self-administration” value in [2] (lower pretreatment dose (0.003 mg/kg), on average) was determined as 3 fold. Also, in [2] (pretreatment 0.003 and 0.01 mg/kg, any monkey), the “surmountability of treatment effects by increased self-administration of higher unit doses of cocaine” value is reported as “not surmounted”. For the same molecule, the ED50 in series [3] (Macaca mulatta, read-out: ED50 for decreasing response rates maintained by food (Food #1, preceded the drug component), i.m. 20 min before session, cocaine 0.003 mg/kg/inj, individual monkeys) was 0.003 mg/kg. In addition, in [3] (setting [11]), the “ED50 for decreasing response rates maintained by food (Food #1, preceded the drug component)” value came out at 0.002 mg/kg; the “ED50 for decreasing response rates maintained by food (Food #2, followed the drug component)” value is 0.011 mg/kg and 0.006 mg/kg and 0.002 mg/kg. Moreover, the “effect on food-maintained response rates in the first component of food availability” value in [3] (pretreatment 0.01 mg/kg) was “appreciably decreased”. Further, in [1] (0.01 and 0.032 mg/kg, in combination with 0.013 and 0.04 mg/kg cocaine), the “effect on responding (response rate) during first one to three cycles” value is “eliminated responding”. For the same molecule, in [1] (pretreatment 0.01 mg/kg, monkey 2), the “fold increase in the cocaine ED50 value” stood at 3 fold. For the same molecule, the “effect on the cocaine discrimination dose-effect curve” value in series [1] (pretreatment 0.01 mg/kg, the other three monkeys (1, 3, 4)) is given as “no effect”. Moreover, the “effect on the cocaine discrimination dose-effect curve” value in [1] (pretreatment 0.032 mg/kg, all four monkeys) is on record as “rightward shifts”. Further, the “ED50 for cocaine after pretreatment with test compound 0.01 mg/kg” value in [1] (test compound 0.01 mg/kg 20 min before first cocaine dose, individual monkeys 1-4, hydrobromide) was 0.24 mg/kg and 0.23 mg/kg and 0.72 mg/kg. Moreover, in series [1] (test compound 0.032 mg/kg 20 min before first cocaine dose, individual monkeys 1-4, hydrobromide), the “ED50 for cocaine after pretreatment with test compound 0.032 mg/kg” value is 0.72 mg/kg and 0.071 mg/kg.

On to `COc1cc2c(cc1O)C(C1(c3ccccc3Cl)CC1)N(C)CC2` (single isomer, unassigned; (+)) [BTS 73 947, (+)-1-[1-(2-chlorophenyl)cyclopropyl]-7-hydroxy-6-methoxy-2-methyl-1,2,3,4-tetrahydroisoquinoline], for which, in [4], the “ED15 (dose induced 15 jerks in the 15 min test period)” value is given as 3.4 mg/kg. For the same molecule, the “protection of 5-HT2 receptors from EEDQ inactivation” value in series [5] is recorded as “no effect”. Moreover, the “protection of D2-like receptors from EEDQ inactivation” value in series [6] is recorded as “no effect”. For the same molecule, in series [7], the “ED50 to inhibit stereotypy induced by d-amphetamine sulphate” value was 2.4 mg/kg. For the same molecule, in series [8], the “ED50 to induce catalepsy” value is 25.4 mg/kg and the “ratio of ED50 to induce catalepsy to ED50 to inhibit amphetamine locomotion” value was 36. Moreover, in series [9] (behavioral models), the duration of action was more than 6 h and the “time of peak effect post-dose” value is 4 h. Further, in [9] (ip, d-amphetamine sulphate 2.5 mg/kg sc), the “ED50 to inhibit locomotion induced by d-amphetamine sulphate” value is 0.7 mg/kg. Also, in [9] (ratio of stereotypy and locomotion ED50, ip), the “fold greater potency against limbic DA function (locomotion vs stereotypy)” value was approximately 3.5 fold. In [10], the “ED50 for protection of D1-like receptors from EEDQ inactivation” value is recorded as 1 mg/kg.
